Data: patent publication US20240415804A1, “METHOD OF TREATING PANCREATIC CANCER” (University of South Florida, priority 2022, published 2024)

Legend:
[1] = tested on: MDSC and macrophage subsets in the BM; experiment: Flow cytometry of MDSC and macrophage subsets in the BM of KC-HPC mice; format: in vivo, mouse; settings: API 25 mg/kg IP
Text: All female C57BL/6 mice (6-8 weeks of age) described in this study were purchased from Envigo (Indianapolis, IN, USA) and were acclimatize for one week in a pathogen-free animal facility (University of South Florida (USF) vivarium) before injections with PC cells. To generate heterotopic pancreatic cancer (HPC) models, mice were subcutaneously injected with 1.5×10^5 murine Panc02 (HPC mice) or 5×10^6 murine UN-KC-6141 cells (KC-HPC mice), in sterile 1× phosphate buffer saline (PBS), in the lower ventral abdomen, while control (CTRL) mice received sterile 1×PBS. Once tumors where palpable, API (25 mg/kg, 100 μL volume) treatments (HPC-API and KC-HPC-API), via intraperitoneal (IP) injections, were started while CTRL, HPC and KC-HPC mice received sterile PBS (vehicle) three times per week until the end of the study^12, 55. The HPC models were euthanized 21-28 days post-injection, while the KC-HPC models were euthanized 16-17 days post-injection. The femur and tibia were cut at the pelvic-hip joint and muscle was removed. The femurs and tibias were cut at the ends and flushed with a 30-gauge needle and 10 cc syringe filled with completed RPMI media until bone was white onto a petri dish. Pelleted bone marrow (BM) cells were treated with Red Blood Cell (RBC) lysis buffer (eBioscience, Waltham, MA, USA), according to the manufacturer's instructions, and then filtered through a […] nylon mesh cell strainer in 1×PBS. All pancreatic tumors were manually cut into ˜1-2 mm^3 fragments with a sterile razor blade and then enzymatically digested with Collagenase, type IV (Sigma-Aldrich), DNase, type IV (Sigma-Aldrich) and Hyaluronidase, Type V (Sigma-Aldrich) in Hank's Balanced Salt Solution for 1 h, spun down and washed as described in previous studies^61. Digested pancreatic tumor samples were treated with RBC lysis buffer and then filtered through a […] nylon mesh cell strainer in 1×PBS. Bone marrow and digested pancreatic tumor single cell suspensions were counted with a hemocytometer and then resuspended in 3% FBS/PBS. BM and digested pancreatic tumor cells (1×10^6) were Fc Blocked (anti-mouse CD16/CD32) and then surface stained for 30 min on ice protected from light with fluorescent anti-mouse antibodies including, CD11b-APC, Ly6C-PE/Cy7, Ly6G-PerCP, F4/80-BV650, MHC—II-BV605, CD206-FITC and CD40-PE/Cy5 along with isotype control antibodies (Biolegend, San Diego, CA, USA) to detect MDSC and macrophage subsets. Digested pancreatic tumor cells (1×10^6) were also Fc Blocked and then surface stained with fluorescent anti-mouse antibodies including CD3-FITC, CD8-PercP/Cy5.5, CD4-APC/Cy7, and CD40L-APC along with isotype control antibodies (Biolegend) to detect CD8^+ T cells. Subsequently, all samples were fixed with 2% paraformaldehyde for 15 min on ice protected from light. Acquisition of samples was performed using a flow cytometer BD LSRII (BD Biosciences Immunocytometry Systems). Data analysis was performed using FlowJo v10.8 software (TreeStar Inc.).

SHIP-1 = SHIP-1 gene and protein expression in OPC mice; format: in vivo, mouse; settings: API 25 mg/kg IP 3 times per week for 2-3 weeks, vs OPC mice
Procedure: The inventors reported recently that API reduced tumor growth in an orthotopic (O) mouse model of PC (OPC)^12, which is a more clinically relevant model^69. To investigate if API targets miR-155 and regulates SHIP-1 expression in the BM and tumor of an OPC mouse model, OPC mice were treated with API at a dose of 25 mg/kg (IP) 3 times per week for 2-3 weeks.
To generate orthotopic pancreatic models (OPC), anesthetized (1.5-3% isoflurane) mice were injected in the neck of the pancreas, via laparotomy^59, with sterile PBS (CTRL) or 1.25×10^4 Panc02 cells (OPC), in sterile 1×PBS. […]
Isolation of total RNA from digested pancreatic tumors and BM cells was performed using a RNeasy Mini Kit (Qiagen), according to the manufacturer's instructions. RT-PCR of quantified and normalized total RNA was performed using a High-Capacity cDNA RT Kit with an RNase Inhibitor (Applied Biosystems), according to the manufacturer's instructions. […]
Single-cell suspensions of BM, digested pancreatic tumors cells and UN-KC-6141 cells treated with API (40 μM) were lysed with radioimmunoprecipitation buffer (Sigma-Aldrich), quantified with a BCA Protein Assay kit (Thermo Fisher Scientific, Waltham, MA, USA), resolved by SDS-PAGE (Thermo Fisher Scientific) and transferred onto a nitrocellulose membrane as previously described. […]

O=c1cc(-c2ccc(O)cc2)oc2cc(O)cc(O)c12 [API, 40,5,7-Trihydroxyflavone, 5,7-Dihydroxy-2-(4-hydroxyphenyl)-4-benzopyrone]
G-MDSC absolute cell numbers in BM ([1]; vs KC-HPC mice): significantly lowered | M1 macrophage percentages in BM ([1]; vs KC-HPC mice): significantly increased | M1 macrophages absolute cell numbers in BM ([1]; vs KC-HPC mice): no significant changes | M2 macrophage percentages in BM ([1]; vs KC-HPC mice): decreased | M2 macrophages absolute cell numbers in BM ([1]; vs KC-HPC mice): no significant changes | M-MDSC absolute cell numbers in BM ([1]; vs KC-HPC mice): significantly lowered | proportions of G-MDSCs in BM ([1]; vs vehicle treated KC-HPC mice): significantly reduced | proportions of M-MDSCs in BM ([1]; vs vehicle treated KC-HPC mice): without any significant change | SHIP-1 gene expression in BM (SHIP-1): significantly increased | SHIP-1 protein expression in BM (SHIP-1): significantly increased
